The target of the first assay is T1, human mGluR2 receptor (Homo sapiens, UniProt Q14416).
T1 construct: expressed in transfected cells; host or cells: CHO cells (membrane preparation)
T1 sequence (Q14416 19-872): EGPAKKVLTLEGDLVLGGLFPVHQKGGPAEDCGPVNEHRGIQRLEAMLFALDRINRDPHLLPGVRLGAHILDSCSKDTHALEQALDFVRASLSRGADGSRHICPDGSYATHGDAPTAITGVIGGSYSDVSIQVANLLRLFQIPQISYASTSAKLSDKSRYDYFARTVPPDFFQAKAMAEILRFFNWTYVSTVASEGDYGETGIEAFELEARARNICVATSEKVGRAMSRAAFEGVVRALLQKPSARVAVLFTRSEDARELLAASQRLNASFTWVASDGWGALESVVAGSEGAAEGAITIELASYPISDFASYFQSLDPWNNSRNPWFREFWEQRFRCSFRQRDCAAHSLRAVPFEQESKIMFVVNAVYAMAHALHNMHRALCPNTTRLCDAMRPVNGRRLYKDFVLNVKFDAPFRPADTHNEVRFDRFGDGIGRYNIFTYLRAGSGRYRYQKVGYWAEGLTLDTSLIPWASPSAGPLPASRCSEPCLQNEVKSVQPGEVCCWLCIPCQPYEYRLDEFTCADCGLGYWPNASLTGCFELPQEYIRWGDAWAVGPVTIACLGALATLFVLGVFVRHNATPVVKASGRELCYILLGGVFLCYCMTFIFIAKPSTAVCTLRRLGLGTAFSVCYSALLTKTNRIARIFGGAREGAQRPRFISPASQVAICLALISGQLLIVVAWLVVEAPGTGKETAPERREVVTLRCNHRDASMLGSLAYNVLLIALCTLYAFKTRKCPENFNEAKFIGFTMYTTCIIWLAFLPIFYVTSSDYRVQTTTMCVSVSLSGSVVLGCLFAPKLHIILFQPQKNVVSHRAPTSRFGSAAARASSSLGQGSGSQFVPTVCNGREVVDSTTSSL
Nature of the assay: [35S]GTPγS binding assay (GTPγS-PAM): positive allosteric modulation in presence of glutamate at EC25, membranes from transfected CHO cells. The settings on record: in presence of mGluR2 agonist glutamate at predetermined EC25 concentration, averages of duplicate values of 11-concentration response curves. Format: biochemical. An excerpt:
The compounds provided in the present invention are positive allosteric modulators of mGluR2. These compounds appear to potentiate glutamate responses by binding to an allosteric site other than the glutamate binding site. The response of mGluR2 to a concentration of glutamate is increased when compounds of Formula (I) are present. Compounds of Formula (I) are expected to have their effect substantially at mGluR2 by virtue of their ability to enhance the function of the receptor. The behaviour of positive allosteric modulators tested at mGluR2 using the [^35S]GTPγS binding assay method described below and which is suitable for the identification of such compounds, and more particularly the compounds according to Formula (I), are shown in Table 4.
[^35S]GTPγS Binding Assay
The [^35S]GTPγS binding is a functional membrane-based assay used to study G-protein coupled receptor (GPCR) function whereby incorporation of a non-hydrolysable form of GTP, [^35S]GTPγS (guanosine 5′-triphosphate, labelled with […] ^35S), is measured. The G-protein o subunit catalyzes the exchange of guanosine 5′-diphosphate (GDP) by guanosine triphosphate (GTP) and on activation of the GPCR by an agonist, [^35S]GTPγS, becomes incorporated and cannot be cleaved to continue the exchange cycle (Harper (1998) Current Protocols in Pharmacology 2.6.1-10, John Wiley & Sons, Inc.). […] Here we describe the use of the [^35S]GTPγS binding assay using membranes from cells transfected with the human mGluR2 receptor and adapted from Schaffhauser et al ((2003) Molecular Pharmacology 4:798-810) for the detection of the positive allosteric modulation (PAM) properties of the compounds of this invention.
CHO-cells were cultured to pre-confluence and stimulated with 5 mM butyrate for 24 hours, prior to washing in PBS, and then collection by scraping in homogenisation buffer (50 mM Tris-HCl buffer, pH 7.4, 4° C.). Cell lysates were homogenized briefly (15 s) using an ultra-turrax homogenizer. The homogenate was centrifuged at 23 500×g for 10 minutes and the supernatant discarded. The pellet was resuspended in 5 mM Tris-HCl, pH 7.4 and centrifuged again (30 000×g, 20 min, 4° C.). The final pellet was resuspended in 50 mM HEPES, pH 7.4 and stored at −80° C. in appropriate aliquots before use. Protein concentration was determined by the Bradford method (Bio-Rad, USA) with bovine serum albumin as standard.
Measurement of mGluR2 positive allosteric modulators in membranes containing human mGluR2 was performed using frozen membranes that were thawed and briefly homogenised prior to pre-incubation in 96-well microplates (15 μg/assay well, 30 minutes, 30° C.) in assay buffer (50 mM HEPES pH 7.4, 100 mM NaCl, 3 mM MgCl2, 50 μM GDP, 10 μg/ml saponin,) with increasing concentrations of positive allosteric modulator (from 0.3 nM to 50 μM) and either a minimal pre-determined concentration of glutamate (PAM assay), or no added glutamate. For the PAM assay, membranes were pre-incubated with glutamate at EC25 concentration, i.e. a concentration that gives 25% of the maximal response glutamate, and is in accordance to published data (Pin et al. (1999) Eur. J. Pharmacol. 375:277-294). After addition of [^35S]GTPγS (0.1 nM, f.c.) to achieve a total reaction volume of 200 μl, microplates were shaken briefly and further incubated to allow [^35S]GTPγS incorporation on activation (30 minutes, 30° C.). The reaction was stopped by rapid vacuum filtration over glass-fibre filter plates (Unifilter 96-well GF/B filter plates, Perkin-Elmer, Downers Grove, USA) microplate using a 96-well plate cell harvester (Filtermate, Perkin-Elmer, USA), and then by washing three times with 300 μl of ice-cold wash buffer (Na2PO4.2H2O 10 mM, NaH2PO4.H2O 10 mM, pH=7.4). Filters were then air-dried, and 40 μl of liquid scintillation cocktail (Microscint-O) was added to each well, and membrane-bound [^35S]GTPγS was measured in a 96-well scintillation plate reader (Top-Count, Perkin-Elmer, USA). […]
As for `CCCCn1ccc(-c2ccc(Oc3ccnc(C)c3)cc2)c(C#N)c1=O` [1-064, 3-cyano-1-butyl-4-[4-(2-methyl-pyridin-4-yloxy)-phenyl]-pyridine-2(1H)-one], the “GTPgS - hR2 PAM pEC50” value was 6.4.

The assay is the same for the next values; noted with them: in presence of mGluR2 agonist glutamate at predetermined EC25 concentration, averages of duplicate values of 11-concentration response curves, read-out: GTPgS - hR2 PAM pEC50 (converted).
In the case of `COc1ccc(-c2ccn(CC3CCCCC3)c(=O)c2C#N)cc1` [1-012], the EC50 was 0.398 µM.

For `CC(C)CCn1ccc(-c2ccc(CN(C)Cc3ccc(F)cc3)cc2)c(C#N)c1=O` [1-197], the EC50 was 0.251 µM.

Consider `CC(C)CCn1ccc(-c2ccc(COCC#N)cc2)c(C#N)c1=O` [1-132], for which the EC50 was 2 µM.

Take `CC(C)CCn1ccc(N2CCc3c(sc4ccc(Cl)cc34)C2)c(C#N)c1=O` [5-042]: the EC50 was 0.2 µM.

In the case of `N#Cc1c(OCc2ccc(CN3CCOCC3)cc2)ccn(Cc2ccc(OC(F)(F)F)cc2)c1=O` [1-271], the EC50 is 0.158 µM.

With `Cc1nnc(N2CCN(c3ccn(CCC(C)C)c(=O)c3C#N)CC2)c2ccccc12` [2-034], the EC50 is 3.98 µM.

Turning to `COc1ccc(C#Cc2ccn(CCC(C)C)c(=O)c2C#N)cc1` [1-268], the EC50 was 0.0501 µM.

As to `COc1ccc(N2CCN(c3ccn(CCC(C)C)c(=O)c3C#N)CC2)cc1` [2-013], the EC50 was 0.794 µM.

As to `CC(C)CCn1ccc(-c2ccc(Cn3ccnc3)cc2)c(C#N)c1=O` [1-248], the EC50 is 3.16 µM.

Take `CCOc1ccccc1OC1CCN(c2ccn(CCC(C)C)c(=O)c2C#N)CC1` [4-021]: the EC50 is 0.2 µM.

`CC(C)CCn1ccc(-c2ccc(OCc3ccncc3)c(Cl)c2)c(C#N)c1=O` [1-165]: the EC50 was 0.0794 µM.

Consider `CC(C)CCn1ccc(-c2ccc(N(C)c3ccccc3)cc2)c(C#N)c1=O` [1-195], for which the EC50 was 0.126 µM.

For `CN(Cc1cccc(C(F)(F)F)c1)C1CCN(c2ccn(Cc3ccc(F)cc3)c(=O)c2C#N)CC1` [4-058], the EC50 was 0.251 µM.

With `CC(C)CCn1ccc(N2CCC(n3ccc4ccccc43)CC2)c(C#N)c1=O` [4-035], the EC50 is 0.1 µM.

As for `CC(C)CCn1ccc(N2CCC(C(F)(F)F)CC2)c(C#N)c1=O` [4-010], the EC50 was 2 µM.

Regarding `CC(C)CCn1ccc(-c2ccc(N3CCCC3)cc2)c(C#N)c1=O` [1-218], the EC50 is 0.2 µM.

Consider `COc1cc2c(cc1OC)CN(c1ccn(CCC(C)C)c(=O)c1C#N)CC2` [5-032], for which the EC50 is 1.26 µM.

Consider `CC(C)CCn1ccc(N2CCC(c3ccccc3)CC2)c(C#N)c1=O` [4-014], for which the EC50 was 0.0631 µM.

Regarding `CC(C)CCn1ccc(N2CCC3(CC2)COc2ccccc2O3)c(C#N)c1=O` [5-036], the EC50 is 0.251 µM.

Regarding `CCCCn1ccc(-c2ccc(Oc3ncccc3C#N)cc2)c(C#N)c1=O` [1-071], the EC50 was 0.631 µM.

Take `COc1ccc(-c2ccn(Cc3ccc(C)cc3)c(=O)c2C#N)cc1` [1-021]: the EC50 was 0.631 µM.

Consider `CC(C)CCn1ccc(N2CCN(c3ccccc3)CC2)c(C#N)c1=O` [2-011], for which the EC50 is 0.501 µM.

`CCCCn1ccc(-c2ccc(Oc3ccc(C#N)cn3)cc2)c(C#N)c1=O` [1-072]: the EC50 is 1.58 µM.

Regarding `CC(C)CCn1ccc(N2CCC(Oc3ccc(F)cc3)CC2)c(C#N)c1=O` [4-018], the EC50 was 0.501 µM.

Take `N#Cc1c(N[C@@H]2C[C@H]2c2ccccc2)ccn(CC2CC2)c1=O` (racemic) [1-294]: the EC50 is 3.16 µM.

As for `CC(C)CCn1ccc(Oc2ccccc2)c(C#N)c1=O` [1-274], the EC50 is 1.58 µM.

Take `CC(C)CCn1ccc(-c2ccc(N3CCN(c4ccccc4)CC3)cc2)c(C#N)c1=O` [1-233]: the EC50 was 0.631 µM.

Consider `COc1ccc(-c2ccn(Cc3cccc(C)c3)c(=O)c2C#N)cc1` [1-017], for which the EC50 is 1 µM.

As to `CC(=O)N1CCN(c2ccc(-c3ccn(CCC(C)C)c(=O)c3C#N)cc2)CC1` [1-231], the EC50 is 1.58 µM.

For the compound `CCCCn1ccc(N2CCC(CCOc3cccnc3)CC2)c(C#N)c1=O` [4-008], the EC50 is 1.58 µM.

In the case of `CC(C)CCn1ccc(N2CCN(Cc3ccccc3)CC2C)c(C#N)c1=O` (stereo not drawn) [2-021], the EC50 was 1.26 µM.

Take `CC(C)CCn1ccc(Oc2ccc(N3CCCC3)cc2)c(C#N)c1=O` [1-291]: the EC50 is 0.501 µM.

In the case of `N#Cc1c(N2CCN(Cc3ccccc3)CC2)ccn(Cc2ccc(F)cc2)c1=O` [2-049], the EC50 was 1.58 µM.

For `CC(C)CCn1ccc(Nc2ccc(Oc3ccccc3)cc2)c(C#N)c1=O` [1-301], the EC50 is 0.2 µM.

For `CC(C)CCn1ccc(N2CCC3(CCN(c4ncccn4)CC3)CC2)c(C#N)c1=O` [5-034], the EC50 is 0.398 µM.

As to `CC(C)CCn1ccc(N2CCCN(c3ccccc3)CC2)c(C#N)c1=O` [5-043], the EC50 was 1 µM.

As to `COc1cc(-c2ccn(CCC(C)C)c(=O)c2C#N)ccc1OCCOC1CCCCO1` (stereo not drawn) [1-138], the EC50 was 0.794 µM.

For the compound `CCCCn1ccc(-c2ccc(Oc3ncccc3C(F)(F)F)cc2)c(C#N)c1=O` [1-067], the EC50 was 0.158 µM.

As for `CC(C)Oc1ccc(-c2ccn(Cc3ccc(F)cc3)c(=O)c2C#N)cc1Cl` [1-025], the EC50 was 0.1 µM.

For `CC(=O)CCNc1ccc(-c2ccn(CCC(C)C)c(=O)c2C#N)cc1` [1-180], the EC50 was 0.316 µM.

For the compound `CC(C)CCn1ccc(-c2ccc(CNCc3ccccc3F)cc2)c(C#N)c1=O` [1-198], the EC50 is 1.26 µM.

As to `N#Cc1c(-c2ccc(Oc3ccnc(N4CCCCC4)c3)cc2)ccn(CC2CC2)c1=O` [1-006], the EC50 is 0.316 µM.

On to `CCCCn1ccc(-c2ccc(Oc3ncccn3)cc2)c(C#N)c1=O` [1-074], for which the EC50 was 5.01 µM.

For `CC(C)CCn1ccc(N2CCN(C/C=C/c3ccccc3)CC2)c(C#N)c1=O` [2-018], the EC50 is 2.51 µM.

For `CC(C)CCn1ccc(-c2ccc(NCc3ccc(OC(F)(F)F)cc3)cc2)c(C#N)c1=O` [1-205], the EC50 is 0.251 µM.

Turning to `CC(C)CCn1ccc(-c2ccc(NC3CCCCC3)cc2)c(C#N)c1=O` [1-188], the EC50 is 0.0501 µM.

Turning to `CC(C)CCn1ccc(-c2ccc(F)cc2)c(C#N)c1=O` [1-089], the EC50 was 3.16 µM.

As to `CCCCn1ccc(N2CCN(c3ccccn3)CC2)c(C#N)c1=O` [2-004], the EC50 was 2 µM.

On to `COCCN(C)c1ccc(-c2ccn(CCC(C)C)c(=O)c2C#N)cc1OC` [1-185], for which the EC50 is 1 µM.

With `CC(C)CCn1ccc(-c2ccc3c(c2)CCN3)c(C#N)c1=O` [5-014], the EC50 is 2 µM.

With `CC(C)CCn1ccc(N2CCN(c3ncccn3)CC2)c(C#N)c1=O` [2-028], the EC50 is 0.794 µM.

Regarding `CC(C)CCn1ccc(-c2ccc(OC(F)F)cc2)c(C#N)c1=O` [1-119], the EC50 was 0.631 µM.

As to `CC(C)CCn1ccc(-c2ccc(NC3CCS(=O)(=O)CC3)cc2)c(C#N)c1=O` [1-217], the EC50 was 2.51 µM.

For the compound `CC(C)CCn1ccc(N2CCC3(CCc4ccccc43)CC2)c(C#N)c1=O` [5-033], the EC50 is 0.0398 µM.

As for `N#Cc1c(-c2ccccc2)ccn(CCCc2ccccc2)c1=O` [1-053], the EC50 is 5.01 µM.

For `CC(C)CCn1ccc(N2CCC(c3noc(-c4ccccc4)n3)CC2)c(C#N)c1=O` [4-041], the EC50 was 0.126 µM.

In the case of `N#Cc1c(N2CCN(Cc3cccc(F)c3)CC2)ccn(Cc2ccc(F)cc2)c1=O` [2-050], the EC50 is 2.51 µM.

For the compound `CC(C)CCn1ccc(N2CCN(Cc3cccc(C(F)(F)F)c3)CC2)c(C#N)c1=O` [2-014], the EC50 is 0.794 µM.

Turning to `CCCCn1ccc(OCc2ccc(-c3cccc(C)n3)cc2)c(C#N)c1=O` [1-306], the EC50 is 3.98 µM.

The record behind these values is patent US9266834B2, “1, 4-disubstituted 3-cyano-pyridone derivatives and their use as positive allosteric modulators of MGLUR2-receptors” (JANSSEN PHARMACEUTICALS, INC., priority 2006, dated 2016).
